Measured values taken from patent publication US20240360122A1, “POLYMORPHIC FORMS AND SALTS OF A GLP-1R AGONIST” (Terns (Suzhou) Biotechnology Co., Ltd., priority 2023, published 2024).
≈ marks a conversion by molar mass, not a printed value. Entries after “also recorded” stand apart in the source; their conditions may differ. Counter-ions that a name gives are not always drawn.

Key:
Assay type in all cases: physicochemical
[1] = Chemical stability studies of Compound 1 meglumine salt at high temperatures; settings: solution and solid states
[2] = Slurry competition among Freeform Type A/C/M; settings: slurry competition in EtOAc and ACN, RT and 50° C.
Experimental: The detailed procedures are as following:
1. […] Add 1 mL corresponding solvent.
2. Magnetically stirred at RT or 50° C. for 4 hours. Filter through 0.45 μm PTFE filter to obtain clear solution.
4. Magnetically stirred at RT or 50° C. for 4 days. Tested XRPD of the wet cake.

[3] = pH solubility in pH 1.0-8.0 buffers at RT; settings: thermodynamic from solid; for solubility at 24 h: LOQ = 0.0001 mg/mL; for solubility: pH buffers, 2 and 24 hours
Experimental: The procedures were listed below:
1. […] Add 2 ml, of the corresponding medium.
2. Mixed well and stirred at RT (1000 rpm). Check the pH and adjust it back to the target pH after dosing.
3. Sampled after 2 hours and 24 hours. The supernatant was isolated by centrifugation (12000 rpm, 5 min) and filtration (0.22 μm, PTFE) for pH and HPLC test.

[4] = Hygroscopicity by DVS at 25° C.
Experimental: DVS was measured via a SMS (Surface Measurement Systems) DVS Intrinsic. The relative humidity at 25° C. were calibrated against deliquescence point of LiCl, Mg(NO3)2 and KCl.

[5] = Solid state stability at 25° C./60% RH and 40° C./75% RH for 1 week
Experimental: Each sample was added into a glass vial, sealed by parafilm with several holes, and kept under tested conditions. After one week, samples were taken for XRPD and HPLC purity test.

[6] = Kinetic solubility in water and bio-relevant media (SGF, FaSSIF, FeSSIF) at 37° C.; settings: for S: Solubility: calculated by freeform; for FC: Form change: residual solids by XRPD
Experimental: Add 4 mL of medium (H2O, SGF, FaSSIF and FeSSIF). • Rolled at 37° C. (˜25 rpm). Sampling at 1, 2, 4 and 24 hrs. • At each time-point, sampled 0.8 mL of solution or suspension into a centrifuge tube prior to centrifugation (12000 rpm, 37° C., 5 min) and filtration through 0.45 μm PTFE membrane. • Tested pH and concentration for the filtrate. Analyze residual solids by XRPD.
0.1 g of NaCl and 0.05 g of Triton X-100 were weighed into a 50-mL volumetric flask. Purified water was added to dissolve the solid. 67.5 μL HCl (38%, 12M) was added after the solid was dissolved completely. pH was then adjusted to 1.8 using HCl (1 M) or NaOH (1 M). Purified water was added to the volume.
(§1) 0.17 g of anhydrous NaH2PO4, 0.021 g of NaOH and 0.31 g of NaCl were weighed into a 50-mL volumetric flask. ˜48 mL purified water was added to dissolve the solid. pH was adjusted to 6.5 using 1M HCl or 1M NaOH. Purified water was then added to the volume. 0.11 g of SIF powder was added into the volumetric flask.
as §1, with “0.41 mL” for “0.17 g”, “acetic acid, 0.20” for “anhydrous NaH2PO4, 0.021”, “0.59” for “0.31”, “5.0” for “6.5”, “0.56” for “0.11”

## N#Cc1ccc(COc2cccc(C3CCN(Cc4nc5ccc(C(=O)O)cc5n4Cc4cncs4)CC3)n2)c(F)c1 [Compound 1 meglumine salt]
[1]
  chemical stability: generally stable

## N#Cc1ccc(COc2cccc(C3CCN(Cc4nc5ccc(C(=O)O)cc5n4Cc4cncs4)CC3)n2)c(F)c1 [Freeform Type C]
[2]
  thermodynamic stability relationship among freeform anhydrates: thermodynamically more stable anhydrate; also recorded: thermodynamically more stable form
[3]; pH 1.0 buffer, pH 1, aqueous buffer
  solubility at 24 h: 130 µg/mL (≈ 223 µM)
[3]; pH 2.0 buffer, pH 2, aqueous buffer
  solubility at 24 h: 17 µg/mL (≈ 29.2 µM)
[3]; pH 1, aqueous buffer, pH 1.0 buffer
  solubility: ≥ 130 µg/mL
[3]; pH 2, aqueous buffer, pH 2.0˜8.0 buffers
  solubility: ≤ 34 µg/mL
[4]; 25° C./80% RH
  water uptake (DVS): 0.12%
[4]; DVS, 25° C.
  hygroscopicity: non-hygroscopic
[4]; DVS, 25° C./80% RH
  Water uptake at 25° C./80% RH: 0.12 wt %
[4]; XRPD after DVS test
  For change after DVS: No
[4]; after DVS test
  form change after DVS test (XRPD): no form change
[5]; 25° C./60% RH/Open/1 week
  Form change: No
  Purity: 96.58 Area %
[5]; 25° C./60% RH/open and 40° C./75% RH/open, 1 week
  solid-state stability: form change and purity decrease: no form change or significant purity decrease
[5]; 40° C./75% RH/Open/1 week
  Form change: No
  Purity: 96.69 Area %
[5]; Initial
  Purity: 96.59 Area %
[6]; FaSSIF, 37° C., 1 hr
  S: Solubility: 2 µg/mL
  FC: Form change: No
[6]; FaSSIF, 37° C., 2 hrs
  S: Solubility: 7 µg/mL
  FC: Form change: No
[6]; FaSSIF, 37° C., 4 hrs
  S: Solubility: 5 µg/mL
  FC: Form change: No
[6]; FaSSIF, 37° C., 24 hrs
  S: Solubility: 3 µg/mL
  FC: Form change: No
[6]; FeSSIF, 37° C., 1 hr
  FC: Form change: No
[6]; FeSSIF, 37° C., 2 hrs
  FC: Form change: No
[6]; FeSSIF, 37° C., 4 hrs
  FC: Form change: No
[6]; FeSSIF, 37° C., 24 hrs
  S: Solubility: 8 µg/mL
  FC: Form change: No
[6]; H2O, 37° C., 1 hr
  S: Solubility: 20 µg/mL
  FC: Form change: No
[6]; H2O, 37° C., 2 hrs
  S: Solubility: 27 µg/mL
  FC: Form change: No
[6]; H2O, 37° C., 4 hrs
  S: Solubility: 20 µg/mL
  FC: Form change: No
[6]; H2O, 37° C., 24 hrs
  S: Solubility: 8 µg/mL
  FC: Form change: No
[6]; SGF, 37° C., 1 hr
  S: Solubility: 83 µg/mL
  FC: Form change: No
[6]; SGF, 37° C., 2 hrs
  S: Solubility: 72 µg/mL
  FC: Form change: No
[6]; SGF, 37° C., 4 hrs
  S: Solubility: 75 µg/mL
  FC: Form change: No
[6]; SGF, 37° C., 24 hrs
  S: Solubility: 78 µg/mL
  FC: Form change: No
[6]; all the media (H2O, SGF, FaSSIF, FeSSIF), after 24 hrs
  form change of residual solids (XRPD) after solubility test: No form change
[6]; all the media, 37° C.
  solubility compared with the other selected salts: lowest solubility
